pEC50, pIC50: −log10 of the molar value. Like-named read-outs stand apart in the source and are kept apart here.
Tests used:
[1] = test system: Hct116 cells; test: Cell proliferation inhibition assay, Hct116; assay type: cell-based, human; settings: for pIC50: read-out: Proliferation inhibition Hct116, IC50, 72h
[2] = target: CYP2D6 (Homo sapiens, UniProt P10635); test: CYP2D6 inhibition in liver cells; assay type: in vitro ADME; settings: read-out: CYP2D6 IC50; inhibition of cytochrome P450 enzymes in liver cells
Sequence of CYP2D6 (P10635 whole entry): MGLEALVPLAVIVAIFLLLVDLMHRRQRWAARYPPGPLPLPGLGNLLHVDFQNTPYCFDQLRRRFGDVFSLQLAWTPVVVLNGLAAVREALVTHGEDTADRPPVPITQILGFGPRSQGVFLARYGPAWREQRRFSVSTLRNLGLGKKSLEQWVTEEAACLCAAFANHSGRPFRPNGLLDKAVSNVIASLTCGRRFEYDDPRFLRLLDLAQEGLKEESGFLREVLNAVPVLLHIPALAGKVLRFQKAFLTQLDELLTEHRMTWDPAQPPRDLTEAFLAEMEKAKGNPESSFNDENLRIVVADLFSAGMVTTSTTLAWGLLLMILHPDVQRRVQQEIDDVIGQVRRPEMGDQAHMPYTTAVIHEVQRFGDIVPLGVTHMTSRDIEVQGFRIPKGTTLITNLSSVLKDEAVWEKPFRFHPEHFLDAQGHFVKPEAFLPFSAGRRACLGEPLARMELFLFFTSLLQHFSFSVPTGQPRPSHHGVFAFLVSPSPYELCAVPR

[3] = test system: class I and class II HDAC enzymes; test: HDAC subtype selectivity profile from IC50 values; settings: in words
[4] = target: CYP3A4 (Homo sapiens, UniProt P08684); test: CYP3A4 inhibition in liver cells; assay type: in vitro ADME; settings: read-out: CYP3A4 IC50; inhibition of cytochrome P450 enzymes in liver cells
Sequence of CYP3A4 (P08684 whole entry): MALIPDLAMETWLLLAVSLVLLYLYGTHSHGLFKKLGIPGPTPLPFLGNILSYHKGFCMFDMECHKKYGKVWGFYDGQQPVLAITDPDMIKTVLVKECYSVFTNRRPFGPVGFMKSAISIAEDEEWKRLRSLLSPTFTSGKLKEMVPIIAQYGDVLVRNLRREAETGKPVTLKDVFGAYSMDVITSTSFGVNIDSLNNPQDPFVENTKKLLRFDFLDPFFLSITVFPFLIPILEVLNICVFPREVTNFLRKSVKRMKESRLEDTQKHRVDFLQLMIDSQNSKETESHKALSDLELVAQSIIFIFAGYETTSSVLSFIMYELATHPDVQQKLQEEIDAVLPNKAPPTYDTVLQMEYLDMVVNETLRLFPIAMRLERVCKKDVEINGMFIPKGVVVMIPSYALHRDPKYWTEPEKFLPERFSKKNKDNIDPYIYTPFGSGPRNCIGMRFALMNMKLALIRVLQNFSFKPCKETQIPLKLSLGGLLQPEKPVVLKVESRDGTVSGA

[5] = test system: STHdhQ111 striatal cells; test: XTT assay of metabolic activity in STHdhQ111 striatal cells; assay type: cell-based, mouse; settings: 24 and 48 hrs
[6] = test system: Vdr and Dhrs4 expression in STHdhQ111 cells; test: Expression of Vdr and Dhrs4 in STHdhQ111 striatal cells; assay type: cell-based, mouse
[7] = target: HDAC2 (Homo sapiens, UniProt Q92769); test: HDAC2 inhibition, Fluor-de-Lys fluorescence assay with purified enzyme
Sequence of HDAC2 (Q92769 whole entry): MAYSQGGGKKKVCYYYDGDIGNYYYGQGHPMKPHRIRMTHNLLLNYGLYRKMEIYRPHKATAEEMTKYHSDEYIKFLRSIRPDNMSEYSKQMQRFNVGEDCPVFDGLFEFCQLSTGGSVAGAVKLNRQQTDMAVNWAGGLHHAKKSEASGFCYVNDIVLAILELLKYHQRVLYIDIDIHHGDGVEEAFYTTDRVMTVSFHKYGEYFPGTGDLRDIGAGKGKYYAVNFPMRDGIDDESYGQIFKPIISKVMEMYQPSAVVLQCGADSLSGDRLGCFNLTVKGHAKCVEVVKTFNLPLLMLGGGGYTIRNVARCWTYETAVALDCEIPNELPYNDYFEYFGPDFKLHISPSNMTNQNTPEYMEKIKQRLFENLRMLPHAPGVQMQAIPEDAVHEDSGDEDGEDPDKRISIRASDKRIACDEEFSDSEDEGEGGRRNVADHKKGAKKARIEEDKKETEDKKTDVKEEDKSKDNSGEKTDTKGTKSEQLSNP

[8] = target: T1, HDAC7 (Homo sapiens, UniProt Q8WUI4); test: HDAC7 inhibition; settings: read-out: IC50 for Class II HDAC enzymes: HDAC7; Table 1
T1 sequence (Q8WUI4 1-952): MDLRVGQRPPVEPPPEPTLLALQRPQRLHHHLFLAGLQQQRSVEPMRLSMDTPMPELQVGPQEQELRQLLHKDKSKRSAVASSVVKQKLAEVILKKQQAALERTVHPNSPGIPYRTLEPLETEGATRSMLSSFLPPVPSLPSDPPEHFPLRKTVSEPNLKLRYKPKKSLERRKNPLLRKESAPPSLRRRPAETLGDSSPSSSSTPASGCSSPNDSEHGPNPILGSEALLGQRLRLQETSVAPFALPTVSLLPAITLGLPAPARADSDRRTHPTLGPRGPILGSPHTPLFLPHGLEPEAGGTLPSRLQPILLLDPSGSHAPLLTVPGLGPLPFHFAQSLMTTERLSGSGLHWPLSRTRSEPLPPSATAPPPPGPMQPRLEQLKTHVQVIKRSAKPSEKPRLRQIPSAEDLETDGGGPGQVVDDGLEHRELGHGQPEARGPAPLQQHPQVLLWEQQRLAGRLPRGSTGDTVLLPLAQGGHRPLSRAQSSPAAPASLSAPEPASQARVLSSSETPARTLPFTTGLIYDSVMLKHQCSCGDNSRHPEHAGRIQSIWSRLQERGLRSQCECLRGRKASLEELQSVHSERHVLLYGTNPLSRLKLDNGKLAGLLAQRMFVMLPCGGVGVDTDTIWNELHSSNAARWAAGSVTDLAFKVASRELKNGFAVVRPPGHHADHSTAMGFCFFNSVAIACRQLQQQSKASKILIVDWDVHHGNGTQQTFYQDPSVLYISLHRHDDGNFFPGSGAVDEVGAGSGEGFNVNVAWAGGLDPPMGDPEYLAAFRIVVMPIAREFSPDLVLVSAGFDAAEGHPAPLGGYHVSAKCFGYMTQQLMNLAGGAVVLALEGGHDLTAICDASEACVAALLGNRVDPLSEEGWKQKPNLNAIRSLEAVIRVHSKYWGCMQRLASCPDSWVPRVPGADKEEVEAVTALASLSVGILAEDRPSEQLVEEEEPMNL

[9] = test system: IMR90 cells; assay type: cell-based, human; settings: read-out: Proliferation inhibition IMR90, IC50; 72h
[10] = target: HDAC5 (Homo sapiens, UniProt Q9UQL6); test: HDAC5 inhibition; settings: read-out: IC50 for Class II HDAC enzymes: HDAC5; Table 1
Sequence of HDAC5 (Q9UQL6 whole entry, species assumed): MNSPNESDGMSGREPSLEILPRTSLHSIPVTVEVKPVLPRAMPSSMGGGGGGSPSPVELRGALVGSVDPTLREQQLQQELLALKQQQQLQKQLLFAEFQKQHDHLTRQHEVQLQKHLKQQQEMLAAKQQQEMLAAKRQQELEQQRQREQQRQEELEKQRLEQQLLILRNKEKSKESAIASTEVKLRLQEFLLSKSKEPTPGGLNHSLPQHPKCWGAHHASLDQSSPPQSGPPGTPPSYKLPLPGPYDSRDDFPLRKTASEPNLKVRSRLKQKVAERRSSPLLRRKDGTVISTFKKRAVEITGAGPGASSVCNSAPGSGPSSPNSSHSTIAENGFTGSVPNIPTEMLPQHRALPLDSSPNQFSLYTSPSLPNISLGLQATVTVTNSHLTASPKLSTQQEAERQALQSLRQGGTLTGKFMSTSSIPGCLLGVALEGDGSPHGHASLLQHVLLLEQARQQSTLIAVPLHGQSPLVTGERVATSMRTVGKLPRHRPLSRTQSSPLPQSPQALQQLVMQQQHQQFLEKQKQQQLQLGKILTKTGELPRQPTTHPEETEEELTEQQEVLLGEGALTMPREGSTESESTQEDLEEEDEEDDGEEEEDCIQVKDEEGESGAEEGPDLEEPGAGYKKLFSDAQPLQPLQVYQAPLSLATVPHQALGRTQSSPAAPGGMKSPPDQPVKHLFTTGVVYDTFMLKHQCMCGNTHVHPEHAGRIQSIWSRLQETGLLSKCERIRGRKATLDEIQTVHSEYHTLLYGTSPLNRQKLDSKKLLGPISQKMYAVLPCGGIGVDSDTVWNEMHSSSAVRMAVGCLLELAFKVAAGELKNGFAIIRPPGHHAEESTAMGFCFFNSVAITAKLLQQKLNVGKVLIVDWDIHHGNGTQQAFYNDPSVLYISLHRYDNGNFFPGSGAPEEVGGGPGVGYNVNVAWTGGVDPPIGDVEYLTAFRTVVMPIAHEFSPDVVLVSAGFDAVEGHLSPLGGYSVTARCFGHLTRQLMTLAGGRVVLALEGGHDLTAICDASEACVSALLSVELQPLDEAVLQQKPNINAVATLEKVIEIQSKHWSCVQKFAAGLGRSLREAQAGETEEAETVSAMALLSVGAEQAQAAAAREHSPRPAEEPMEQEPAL

[11] = target: HDAC4 (Homo sapiens, UniProt P56524); test: HDAC4 inhibition; settings: read-out: IC50 for Class II HDAC enzymes: HDAC4; Table 1
Sequence of HDAC4 (P56524 whole entry, species assumed): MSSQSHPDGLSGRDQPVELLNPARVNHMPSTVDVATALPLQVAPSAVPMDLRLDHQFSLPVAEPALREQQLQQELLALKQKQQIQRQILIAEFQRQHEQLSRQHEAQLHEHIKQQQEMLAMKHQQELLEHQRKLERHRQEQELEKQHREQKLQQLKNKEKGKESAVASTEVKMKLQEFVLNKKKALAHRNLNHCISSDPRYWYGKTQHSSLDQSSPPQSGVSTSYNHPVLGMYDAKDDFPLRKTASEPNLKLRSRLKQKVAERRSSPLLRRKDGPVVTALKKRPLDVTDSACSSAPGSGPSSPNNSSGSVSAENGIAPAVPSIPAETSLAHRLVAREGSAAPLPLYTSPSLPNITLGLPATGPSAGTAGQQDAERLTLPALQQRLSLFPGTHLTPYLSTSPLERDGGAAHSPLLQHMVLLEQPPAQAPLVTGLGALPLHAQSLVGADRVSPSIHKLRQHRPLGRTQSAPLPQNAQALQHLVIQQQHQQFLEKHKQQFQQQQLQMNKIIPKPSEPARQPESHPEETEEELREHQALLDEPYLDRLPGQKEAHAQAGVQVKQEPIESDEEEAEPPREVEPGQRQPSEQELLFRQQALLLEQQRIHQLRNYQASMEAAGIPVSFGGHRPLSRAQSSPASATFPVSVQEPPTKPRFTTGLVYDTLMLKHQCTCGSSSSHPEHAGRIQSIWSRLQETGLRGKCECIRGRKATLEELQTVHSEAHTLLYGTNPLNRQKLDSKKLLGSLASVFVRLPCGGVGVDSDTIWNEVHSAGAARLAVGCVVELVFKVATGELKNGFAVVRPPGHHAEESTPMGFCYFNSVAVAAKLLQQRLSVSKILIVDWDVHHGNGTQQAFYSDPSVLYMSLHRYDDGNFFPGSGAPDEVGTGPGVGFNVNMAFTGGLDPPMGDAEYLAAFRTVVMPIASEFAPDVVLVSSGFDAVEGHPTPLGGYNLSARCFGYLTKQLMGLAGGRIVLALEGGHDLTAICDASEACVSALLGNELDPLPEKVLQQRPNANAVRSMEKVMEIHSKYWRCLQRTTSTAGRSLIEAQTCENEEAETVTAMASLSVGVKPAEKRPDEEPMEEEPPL

[12] = target: T2, HDAC8 (Homo sapiens, UniProt Q9BY41); test: HDAC8 inhibition, recombinant enzyme cell-free assay; settings: read-out: IC50 for Class I HDAC enzymes: HDAC8; Table 1
T2 sequence (Q9BY41 1-377): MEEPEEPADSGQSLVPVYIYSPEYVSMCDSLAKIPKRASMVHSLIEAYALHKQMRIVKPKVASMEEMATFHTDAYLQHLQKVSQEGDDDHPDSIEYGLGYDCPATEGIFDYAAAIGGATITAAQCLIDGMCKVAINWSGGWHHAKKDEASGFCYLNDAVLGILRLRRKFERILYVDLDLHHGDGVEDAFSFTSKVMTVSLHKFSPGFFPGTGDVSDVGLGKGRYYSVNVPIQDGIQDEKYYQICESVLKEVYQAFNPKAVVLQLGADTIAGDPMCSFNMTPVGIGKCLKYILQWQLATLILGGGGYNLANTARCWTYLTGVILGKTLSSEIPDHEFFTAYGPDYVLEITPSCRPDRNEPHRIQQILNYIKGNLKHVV

[13] = test system: HD-related gene expression in striatum, R6/2 transgenic mice; test: Real-time PCR of HD-related genes in striatum of R6/2 transgenic mice

| SMILES | pEC50 ([1]; read-out: EC50 for inhibition of proliferation of Hct116 cells) | pIC50 [1] | pIC50 [2] | activity against the class II HDACs, HDAC 4, 5 and 7 [3] | pIC50 [4] | improvement of the metabolic deficit of STHdhQ111 cells, in words [5] | reversal of gene expression deficits (Vdr, Dhrs4), in words [6] | pIC50 ([7]; read-out: HDAC2 IC50, Table 2) | pIC50 ([7]; read-out: IC50 for Class I HDAC enzymes: HDAC2, Table 1) | pIC50 [8] | pIC50 [9] | pIC50 [10] | pIC50 [11] | pIC50 [12] | reversal of expression of genes relevant to HD, in words ([13]; 150 mg/kg s.c. three days, striatum) | genes whose expression deficits were corrected, of 13 tested ([13]; qRT-PCR) |
| --- | --- | --- | --- | --- | --- | --- | --- | --- | --- | --- | --- | --- | --- | --- | --- | --- |
| Cc1ccc(NC(=O)CCCCCC(=O)Nc2ccccc2N)cc1 [4b] | 5.00 | 5.00 | < 5.00 | essentially no activity | < 5.00 | significantly improved the metabolic deficit | effective at reversing gene expression deficits | – | – | – | – | – | – | – | – | – |
| Nc1ccc(-c2cccs2)cc1NC(=O)CCCCCCNC(=O)c1cccnc1 [compound 233] | – | – | < 5.00 | – | 6.96 | – | – | 7.15 | – | – | – | – | – | – | – | – |
| Cc1ccc(C(=O)NCCCCCC(=O)Nc2ccc(F)cc2N)cc1 [compound 136] | – | 4.40 | < 5.00 | – | – | significantly improved the metabolic deficit | – | – | 5.52 | < 3.74 | < 4.30 | < 3.74 | < 3.74 | 4.88 | most effective | eight of the 13 genes tested |
